Source: PubChem BioAssay AID248 (DTP/NCI, 2004)
Where “and” joins values, the source holds several entries; their conditions need not be identical. Identical values can stand only once. Inconclusive results and toxic doses are left out. No stated cut-off is given here; in the data, active means T/C of 150% or more; inactive means T/C below 125%.

Test system: L1210 leukemia ip in BDF1 mice, survival T/C
Experiment: NCI In Vivo Anticancer Drug Screen. Data for tumor model L1210 Leukemia (intraperitoneal) in B6D2F1 (BDF1) mice
Details: endpoint: mean survival time, higher = longer survival
Outline: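 Transplantable tumor model; survival measured in treated vs vehicle control mice. Value = treated/control.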

[1] = dose: 100.0 mg/kg/injection, schedule: Q04DX003 (ip), vehicle: saline with Tween-80
[2] = dose: 200.0 mg/kg/injection, schedule: Q04DX003 (ip), vehicle: saline with Tween-80
[3] = dose: 400.0 mg/kg/injection, schedule: Q04DX003 (ip), vehicle: saline with Tween-80
[4] = dose: 100.0 mg/kg/injection, schedule: Q01DX009 (ip), vehicle: Klucel (hydroxypropylcellulose) (HPC)
[5] = dose: 200.0 mg/kg/injection, schedule: Q01DX009 (ip), vehicle: Klucel (hydroxypropylcellulose) (HPC)
[6] = dose: 400.0 mg/kg/injection, schedule: Q01DX009 (ip), vehicle: Klucel (hydroxypropylcellulose) (HPC)

Measured: T/C

CCCCCCCCCCCCCCCCCC(=O)[O][Hg][c]1ccccc1
inactive: dose: 5.0 mg/kg/injection, schedule: Q01DX001 (ip), vehicle: carboxymethylcellulose (CMC) 94 % of control | dose: 8.0 mg/kg/injection, schedule: Q01DX015 (ip), vehicle: carboxymethylcellulose (CMC) 96 % of control | dose: 10.0 mg/kg/injection, schedule: Q01DX001 (ip), vehicle: carboxymethylcellulose (CMC) 94 % of control | dose: 10.0 mg/kg/injection, schedule: Q01DX009 (ip), vehicle: saline with Tween-80 94 % of control | dose: 16.0 mg/kg/injection, schedule: Q01DX015 (ip), vehicle: carboxymethylcellulose (CMC) 92 % of control | dose: 20.0 mg/kg/injection, schedule: Q01DX001 (ip), vehicle: carboxymethylcellulose (CMC) 92 % of control | dose: 20.0 mg/kg/injection, schedule: Q01DX009 (ip), vehicle: saline with Tween-80 110 % of control | dose: 20.0 mg/kg/injection, schedule: Q04DX003 (ip), vehicle: saline 102 % of control | dose: 32.0 mg/kg/injection, schedule: Q01DX015 (ip), vehicle: carboxymethylcellulose (CMC) 94 % of control | dose: 40.0 mg/kg/injection, schedule: Q01DX001 (ip), vehicle: carboxymethylcellulose (CMC) 100 % of control | dose: 40.0 mg/kg/injection, schedule: Q04DX003 (ip), vehicle: saline 98 % of control

Nc1[nH]c(=O)ncc1-c1ccccc1Cl
inactive: dose: 25.0 mg/kg/injection, schedule: Q01DX009 (ip), vehicle: saline with Tween-80 88 % of control | dose: 25.0 mg/kg/injection, schedule: Q04DX002 (ip), vehicle: saline with Tween-80 92 % of control and 100 % of control | dose: 25.0 mg/kg/injection, schedule: Q04DX003 (ip), vehicle: saline with Tween-80 93 % of control | dose: 50.0 mg/kg/injection, schedule: Q01DX001 (ip), vehicle: saline with Tween-80 101 % of control | dose: 50.0 mg/kg/injection, schedule: Q01DX009 (ip), vehicle: saline with Tween-80 91 % of control | dose: 50.0 mg/kg/injection, schedule: Q04DX002 (ip), vehicle: saline with Tween-80 101 % of control and 103 % of control | dose: 50.0 mg/kg/injection, schedule: Q04DX003 (ip), vehicle: saline with Tween-80 92 % of control | dose: 100.0 mg/kg/injection, schedule: Q01DX001 (ip), vehicle: saline with Tween-80 101 % of control | dose: 100.0 mg/kg/injection, schedule: Q01DX009 (ip), vehicle: saline with Tween-80 94 % of control and 91 % of control | [1] 103 % of control | [2] 101 % of control

CCc1ccc2c(-c3ccccc3)ccc3c2c1C(=O)c1ccccc1-3
inactive: dose: 100.0 mg/kg/injection, schedule: Q04DX002 (ip), vehicle: saline with Tween-80 94 % of control | dose: 200.0 mg/kg/injection, schedule: Q04DX002 (ip), vehicle: saline with Tween-80 88 % of control | dose: 400.0 mg/kg/injection, schedule: Q04DX002 (ip), vehicle: saline with Tween-80 91 % of control

Cc1cc2nc3c(=O)[nH]c(=O)nc-3n(CC(O)C(O)C(O)C(O)CO)c2cc1C (stereo unspecified)
inactive: dose: 14.12 mg/kg/injection, schedule: Q01DX Z (ip), vehicle: carboxymethylcellulose (CMC) 91 % of control | dose: 25.0 mg/kg/injection, schedule: Q01DX015 (ip), vehicle: saline 100 % of control | dose: 28.25 mg/kg/injection, schedule: Q01DX Z (ip), vehicle: carboxymethylcellulose (CMC) 93 % of control | dose: 50.0 mg/kg/injection, schedule: Q01DX015 (ip), vehicle: saline 96 % of control | dose: 56.5 mg/kg/injection, schedule: Q01DX Z (ip), vehicle: carboxymethylcellulose (CMC) 90 % of control | dose: 100.0 mg/kg/injection, schedule: Q01DX015 (ip), vehicle: saline 96 % of control | dose: 100.0 mg/kg/injection, schedule: Q01DX Z (ip), vehicle: carboxymethylcellulose (CMC) 97 % of control | dose: 113.0 mg/kg/injection, schedule: Q01DX Z (ip), vehicle: carboxymethylcellulose (CMC) 89 % of control | dose: 200.0 mg/kg/injection, schedule: Q01DX015 (ip), vehicle: saline 97 % of control and 98 % of control | dose: 200.0 mg/kg/injection, schedule: Q01DX Z (ip), vehicle: carboxymethylcellulose (CMC) 97 % of control | dose: 400.0 mg/kg/injection, schedule: Q01DX001 (ip), vehicle: acetone 103 % of control | dose: 400.0 mg/kg/injection, schedule: Q01DX015 (ip), vehicle: saline 92 % of control | dose: 400.0 mg/kg/injection, schedule: Q01DX Z (ip), vehicle: carboxymethylcellulose (CMC) 94 % of control | dose: 800.0 mg/kg/injection, schedule: Q01DX001 (ip), vehicle: acetone 95 % of control | dose: 800.0 mg/kg/injection, schedule: Q01DX Z (ip), vehicle: carboxymethylcellulose (CMC) 90 % of control

COC1OCC(OS(C)(=O)=O)C(OS(C)(=O)=O)C1OS(C)(=O)=O (stereo unspecified)
inactive: [1] 97 % of control and 96 % of control | [2] 97 % of control and 98 % of control | [3] 100 % of control and 98 % of control

C1CCCC2(CC1)CCCCC2
inactive: dose: 75.0 mg/kg/injection, schedule: Q01DX001 (ip), vehicle: saline with Tween-80 94 % of control | dose: 150.0 mg/kg/injection, schedule: Q01DX001 (ip), vehicle: saline with Tween-80 90 % of control | dose: 300.0 mg/kg/injection, schedule: Q01DX001 (ip), vehicle: saline with Tween-80 95 % of control

CCCCOC(=O)c1ccc(NC(=O)Nc2cc(C(F)(F)F)ccc2Cl)cc1
inactive: [4] 107 % of control | [5] 113 % of control | [6] 94 % of control

COC(=O)C1CN=NC1C(=O)OC (stereo unspecified)
inactive: dose: 100.0 mg/kg/injection, schedule: Q04DX003 (ip), vehicle: acetone 98 % of control | dose: 200.0 mg/kg/injection, schedule: Q04DX003 (ip), vehicle: acetone 96 % of control | dose: 400.0 mg/kg/injection, schedule: Q04DX003 (ip), vehicle: acetone 101 % of control

COC(=O)C1=CNC=C(C(=O)OC)C1c1ccc(C)cc1
inactive: [1] 95 % of control | [2] 93 % of control | [3] 91 % of control

COc1cc2c(cc1OC)C1=CC(=O)N3CCCC34OS(=O)OC14CC2 (stereo unspecified)
inactive: [4] 97 % of control | dose: 100.0 mg/kg/injection, schedule: Q04DX003 (ip), vehicle: Klucel (hydroxypropylcellulose) (HPC) 98 % of control | [5] 100 % of control | dose: 200.0 mg/kg/injection, schedule: Q04DX003 (ip), vehicle: Klucel (hydroxypropylcellulose) (HPC) 96 % of control | [6] 96 % of control | dose: 400.0 mg/kg/injection, schedule: Q04DX003 (ip), vehicle: Klucel (hydroxypropylcellulose) (HPC) 96 % of control

CCOc1ccc(NS(=O)(=O)c2ccc(Cl)cc2)cc1
inactive: [4] 102 % of control | [5] 112 % of control | [6] 116 % of control

CCCCCCCCCCCCC(=O)N(CCC)CCC
inactive: dose: 100.0 mg/kg/injection, schedule: Q04DX002 (ip), vehicle: Klucel (hydroxypropylcellulose) (HPC) 98 % of control | dose: 200.0 mg/kg/injection, schedule: Q04DX002 (ip), vehicle: Klucel (hydroxypropylcellulose) (HPC) 98 % of control | dose: 400.0 mg/kg/injection, schedule: Q04DX002 (ip), vehicle: Klucel (hydroxypropylcellulose) (HPC) 102 % of control

CC(C)NC(C)C
inactive: dose: 100.0 mg/kg/injection, schedule: Q01DX001 (ip), vehicle: Klucel (hydroxypropylcellulose) (HPC) 104 % of control | dose: 200.0 mg/kg/injection, schedule: Q01DX001 (ip), vehicle: Klucel (hydroxypropylcellulose) (HPC) 101 % of control | dose: 400.0 mg/kg/injection, schedule: Q01DX001 (ip), vehicle: Klucel (hydroxypropylcellulose) (HPC) 107 % of control

CC(Br)C(=O)NCC(=O)NCC(=O)O (stereo unspecified)
inactive: dose: 100.0 mg/kg/injection, schedule: Q01DX009 (ip), vehicle: saline 100 % of control | dose: 100.0 mg/kg/injection, schedule: Q04DX003 (ip), vehicle: saline 101 % of control | dose: 200.0 mg/kg/injection, schedule: Q01DX009 (ip), vehicle: saline 89 % of control | dose: 200.0 mg/kg/injection, schedule: Q04DX003 (ip), vehicle: saline 101 % of control | dose: 400.0 mg/kg/injection, schedule: Q01DX009 (ip), vehicle: saline 90 % of control | dose: 400.0 mg/kg/injection, schedule: Q04DX003 (ip), vehicle: saline 97 % of control
